According to patent US12600940B2, “Strains and processes for single cell protein or biomass production” (priority 2019, dated 2026):
Values after ≈ are worked out from the molar mass of the structure shown.

Legend:
VTT-E-193585 strain [1] = assay: Antibiotic susceptibility (MIC), CLSI M07 broth microdilution / agar dilution; type: cell-based, Xanthobacter sp.; conditions: comparison of MIC values of Table 5
Procedure: (§1) Escherichia coli ATCC 25922 was used as quality control strain and it was incubated in aerobic conditions, at +35±2° C. for 18±2 hours.

[2] = test system: Escherichia coli ATCC 25922; assay: Antibiotic susceptibility (MIC), quality control strain; type: cell-based; conditions: E. coli ATCC 25922, 18 h ± 2 h, aerobic, +35±2° C.; for MIC: Escherichia coli, ATCC25922, read-out: Minimum Inhibitory Concentration (MIC)
Procedure: as §1

VTT-E-193585 strain [3] = assay: Antibiotic susceptibility (MIC), CLSI M07 broth microdilution / agar dilution; type: cell-based, Xanthobacter sp.; conditions: VTT-E-193585, 48 h ± 1 h, aerobic, +35±2° C., cation-adjusted Mueller Hinton Broth, fosfomycin by agar dilution; for MIC: read-out: Minimum Inhibitory Concentration (MIC)

Row | Compound | MIC for VTT-E-193585 compared with E. coli ATCC 25922 (VTT-E-193585 strain [1]) | MIC [2] [µg/mL] | MIC (VTT-E-193585 strain [3]) [µg/mL] | Minimum Inhibitory Concentration (MIC) [2] [µg/mL] | Minimum Inhibitory Concentration (MIC) (VTT-E-193585 strain [3]) [µg/mL]
1 | CC1(C)S[C@@H]2[C@H](NC(=O)[C@H](N)c3ccccc3)C(=O)N2[C@H]1C(=O)O [Ampicillin, ampicillin] | higher | 8 (≈ 22.9 µM) | 16 (≈ 45.8 µM) | – | –
2 | C[C@@H]1O[C@@H]1P(=O)(O)O [Fosfomycin, fosfomycin] | higher | 0.5 (≈ 3.62 µM) | 32 (≈ 232 µM) | – | –
3 | NC[C@H]1O[C@H](O[C@H]2[C@H](O)[C@@H](O[C@H]3O[C@H](CO)[C@@H](O)[C@H](N)[C@H]3O)[C@H](N)C[C@@H]2N)[C@H](O)[C@@H](O)[C@@H]1O [Kanamycin, kanamycin] | – | 4 (≈ 8.26 µM) | 2 (≈ 4.13 µM) | – | –
4 | [H]/N=C(/N)N[C@H]1[C@H](O)[C@@H](O)[C@H](O[C@@H]2O[C@@H](C)[C@](O)(C=O)[C@H]2O[C@@H]2O[C@@H](CO)[C@H](O)[C@@H](O)[C@@H]2NC)[C@@H](N/C(N)=N\[H])[C@@H]1O [Streptomycin, streptomycin] | lower or comparable | 4 (≈ 6.88 µM) | 0.5 (≈ 0.86 µM) | – | –
5 | CN(C)[C@@H]1C(O)=C(C(N)=O)C(=O)[C@@]2(O)C(O)=C3C(=O)c4c(O)cccc4[C@@](C)(O)[C@H]3C[C@@H]12 [Tetracycline, tetracycline] | – | 1 (≈ 2.25 µM) | 0.25 (≈ 0.563 µM) | – | –
6 | colistin | higher | – | – | 2 | 4
7 | gentamicin | lower or comparable | – | – | 0.5 | 0.5
